Inconclusive results and toxic doses are left out. No stated cut-off is given here; in the data, active means T/C of 150% or more; inactive means T/C below 125%.
System: L1210 leukemia ip in BDF1 mice, survival T/C
Experiment: NCI In Vivo Anticancer Drug Screen. Data for tumor model L1210 Leukemia (intraperitoneal) in B6D2F1 (BDF1) mice
Conditions: endpoint: mean survival time, higher = longer survival
Procedure, shortened: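 Each compound was tested against a transplantable tumor grown in mice. The endpoint was survival, with treated animals benchmarked against vehicle controls as a simple ratio.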

[1] = dose: 100.0 mg/kg/injection, schedule: Q04DX002 (ip), vehicle: saline
[2] = dose: 200.0 mg/kg/injection, schedule: Q04DX002 (ip), vehicle: saline
[3] = dose: 400.0 mg/kg/injection, schedule: Q04DX002 (ip), vehicle: saline
[4] = dose: 100.0 mg/kg/injection, schedule: Q01DX009 (ip), vehicle: Klucel (hydroxypropylcellulose) (HPC)
[5] = dose: 200.0 mg/kg/injection, schedule: Q01DX009 (ip), vehicle: Klucel (hydroxypropylcellulose) (HPC)
[6] = dose: 400.0 mg/kg/injection, schedule: Q01DX009 (ip), vehicle: Klucel (hydroxypropylcellulose) (HPC)
[7] = dose: 50.0 mg/kg/injection, schedule: Q01DX009 (ip), vehicle: saline with Tween-80
[8] = dose: 100.0 mg/kg/injection, schedule: Q01DX009 (ip), vehicle: saline with Tween-80
[9] = dose: 100.0 mg/kg/injection, schedule: Q04DX003 (ip), vehicle: saline with Tween-80
[10] = dose: 200.0 mg/kg/injection, schedule: Q01DX009 (ip), vehicle: saline with Tween-80
[11] = dose: 200.0 mg/kg/injection, schedule: Q04DX003 (ip), vehicle: saline with Tween-80
[12] = dose: 400.0 mg/kg/injection, schedule: Q04DX003 (ip), vehicle: saline with Tween-80
[13] = dose: 100.0 mg/kg/injection, schedule: Q04DX003 (ip), vehicle: Klucel (hydroxypropylcellulose) (HPC)
[14] = dose: 200.0 mg/kg/injection, schedule: Q04DX003 (ip), vehicle: Klucel (hydroxypropylcellulose) (HPC)
[15] = dose: 100.0 mg/kg/injection, schedule: Q01DX001 (ip), vehicle: saline
[16] = dose: 200.0 mg/kg/injection, schedule: Q01DX001 (ip), vehicle: saline
[17] = dose: 400.0 mg/kg/injection, schedule: Q01DX001 (ip), vehicle: saline
[18] = dose: 400.0 mg/kg/injection, schedule: Q01DX009 (ip), vehicle: saline with Tween-80
[19] = dose: 100.0 mg/kg/injection, schedule: Q04DX002 (ip), vehicle: saline with Tween-80
[20] = dose: 400.0 mg/kg/injection, schedule: Q04DX002 (ip), vehicle: saline with Tween-80

Measured: T/C

CC1CN=C(c2ccc([N+](=O)[O-])cc2)S1 (stereo not given)
inactive: dose: 100.0 mg/kg/injection, schedule: Q01DX001 (ip), vehicle: Klucel (hydroxypropylcellulose) (HPC) 100 % of control | dose: 200.0 mg/kg/injection, schedule: Q01DX001 (ip), vehicle: Klucel (hydroxypropylcellulose) (HPC) 95 % of control | dose: 400.0 mg/kg/injection, schedule: Q01DX001 (ip), vehicle: Klucel (hydroxypropylcellulose) (HPC) 94 % of control

Nc1cc(=O)[nH]c(=S)[nH]1
inactive: [1] 99 % of control | [2] 92 % of control | [3] 101 % of control

CCOc1ccccc1NC(=O)NCC(=O)N/N=C/c1ccc(O)c(OC)c1
inactive: [4] 95 % of control | [5] 90 % of control | [6] 91 % of control

O=C(CC(O)(C(F)(F)Cl)C(F)(F)Cl)c1cccc([N+](=O)[O-])c1
inactive: [7] 98 % of control | dose: 50.0 mg/kg/injection, schedule: Q04DX003 (ip), vehicle: saline with Tween-80 98 % of control | [8] 98 % of control | [9] 98 % of control | [10] 95 % of control | [11] 98 % of control | [12] 89 % of control

CC(=O)C1(c2ccccc2)OC1c1ccccc1 (stereo not given)
inactive: dose: 50.0 mg/kg/injection, schedule: Q01DX009 (ip), vehicle: Klucel (hydroxypropylcellulose) (HPC) 96 % of control | [4] 112 % of control | [13] 90 % of control | [5] 96 % of control | [14] 95 % of control

Cc1ccc(Cl)cc1NC(=O)c1ccccc1F
inactive: dose: 100.0 mg/kg/injection, schedule: Q04DX002 (ip), vehicle: Klucel (hydroxypropylcellulose) (HPC) 93 % of control | dose: 200.0 mg/kg/injection, schedule: Q04DX002 (ip), vehicle: Klucel (hydroxypropylcellulose) (HPC) 97 % of control | dose: 400.0 mg/kg/injection, schedule: Q04DX002 (ip), vehicle: Klucel (hydroxypropylcellulose) (HPC) 101 % of control

CC1(C)OC(C)(C)C1(O)C(=O)O
inactive: [15] 97 % of control | [16] 101 % of control | [17] 105 % of control

N#CCCn1cnc2c(N)ncnc21
inactive: [8] 96 % of control | [9] 103 % of control | [10] 96 % of control | [11] 103 % of control | [18] 91 % of control | [12] 104 % of control

CCCCOC(=O)Nc1ccc(OCC)cc1
inactive: [15] 107 % of control | [16] 95 % of control | [17] 93 % of control

CS(=O)(=O)OCCN(CCOS(C)(=O)=O)c1ccc(C=Nc2ccc(C(=O)O)cc2)c(Cl)c1
inactive: [13] 120 % of control | [14] 105 % of control | dose: 400.0 mg/kg/injection, schedule: Q04DX003 (ip), vehicle: Klucel (hydroxypropylcellulose) (HPC) 86 % of control

Cc1nc(N)[nH]c(=O)c1CCCNCc1ccco1
inactive: [15] 100 % of control | [16] 103 % of control | [17] 99 % of control

Cc1ccc(S(=O)(=O)N/N=C2/C(=O)C3CCC2C3)cc1 (stereo not given)
inactive: dose: 50.0 mg/kg/injection, schedule: Q01DX001 (ip), vehicle: saline with Tween-80 92 % of control | dose: 100.0 mg/kg/injection, schedule: Q01DX001 (ip), vehicle: saline with Tween-80 92 % of control | dose: 200.0 mg/kg/injection, schedule: Q01DX001 (ip), vehicle: saline with Tween-80 87 % of control

O=C(O)CCCCc1ccccc1
inactive: [8] 96 % of control | [9] 100 % of control | [10] 100 % of control | [11] 91 % of control | [18] 92 % of control | [12] 94 % of control

NS(=O)(=O)c1cc(Br)c(N=Nc2ccc(O)c3ncccc23)c(Br)c1
inactive: [15] 100 % of control | [16] 100 % of control | [17] 108 % of control

c1ccc(NN(CN(Nc2ccccc2)c2ccccc2)c2ccccc2)cc1
inactive: dose: 100.0 mg/kg/injection, schedule: Q01DX001 (ip), vehicle: other 95 % of control | dose: 400.0 mg/kg/injection, schedule: Q01DX001 (ip), vehicle: other 89 % of control

CCCCCCCCc1cc2c(c3c1CCCC3)CCC1CCCCC21 (stereo not given)
inactive: [15] 104 % of control | [16] 98 % of control | [17] 101 % of control

CC(C)(Br)CNC(=O)c1cccc([N+](=O)[O-])c1
inactive: dose: 75.0 mg/kg/injection, schedule: Q01DX009 (ip), vehicle: Klucel (hydroxypropylcellulose) (HPC) 103 % of control | dose: 75.0 mg/kg/injection, schedule: Q04DX003 (ip), vehicle: Klucel (hydroxypropylcellulose) (HPC) 95 % of control | dose: 150.0 mg/kg/injection, schedule: Q01DX009 (ip), vehicle: Klucel (hydroxypropylcellulose) (HPC) 101 % of control | dose: 150.0 mg/kg/injection, schedule: Q04DX003 (ip), vehicle: Klucel (hydroxypropylcellulose) (HPC) 97 % of control | dose: 300.0 mg/kg/injection, schedule: Q01DX009 (ip), vehicle: Klucel (hydroxypropylcellulose) (HPC) 86 % of control | dose: 300.0 mg/kg/injection, schedule: Q04DX003 (ip), vehicle: Klucel (hydroxypropylcellulose) (HPC) 92 % of control

O=C1OC(C(O)C(O)C(O)CO)C(O)C1O (stereo not given)
inactive: [1] 96 % of control | [2] 96 % of control | [3] 108 % of control

CCCc1ccc(OCC=C(C)C)cc1
inactive: dose: 50.0 mg/kg/injection, schedule: Q04DX002 (ip), vehicle: saline with Tween-80 100 % of control | [19] 100 % of control

Cc1cc(C)c(C)c(OC(=O)Nc2ccc(Cl)cc2C(F)(F)F)c1
inactive: [7] 92 % of control | [8] 103 % of control | [10] 106 % of control

CCC(CC)(Cc1ccccc1)C(=O)NC(=O)NO
inactive: dose: 25.0 mg/kg/injection, schedule: Q01DX Z (ip), vehicle: methylcellulose (MC) 98 % of control | dose: 50.0 mg/kg/injection, schedule: Q01DX Z (ip), vehicle: methylcellulose (MC) 101 % of control | dose: 100.0 mg/kg/injection, schedule: Q01DX Z (ip), vehicle: methylcellulose (MC) 98 % of control

COc1cc(Br)c(NC(C)=O)cc1OC
inactive: [15] 98 % of control | [16] 108 % of control | [17] 96 % of control

COc1ccc(C2=NNC(=O)C2(C)Br)cc1 (stereo not given)
inactive: [15] 105 % of control | [16] 91 % of control | [17] 100 % of control

O=C(NO)C1CCC(C(=O)NO)CC1 (stereo not given)
inactive: [8] 92 % of control | [10] 89 % of control | [18] 89 % of control

CC(=O)OCCNc1ccc([N+](=O)[O-])cc1[N+](=O)[O-]
inactive: dose: 100.0 mg/kg/injection, schedule: Q01DX009 (ip), vehicle: acetone 109 % of control | dose: 100.0 mg/kg/injection, schedule: Q04DX003 (ip), vehicle: saline 101 % of control | dose: 200.0 mg/kg/injection, schedule: Q01DX009 (ip), vehicle: acetone 97 % of control | dose: 200.0 mg/kg/injection, schedule: Q04DX003 (ip), vehicle: saline 103 % of control | dose: 400.0 mg/kg/injection, schedule: Q01DX009 (ip), vehicle: acetone 112 % of control | dose: 400.0 mg/kg/injection, schedule: Q04DX003 (ip), vehicle: saline 95 % of control

Cc1ccc2[nH]c(=S)n(-c3ccccc3)c(=O)c2c1
inactive: [19] 91 % of control | dose: 200.0 mg/kg/injection, schedule: Q04DX002 (ip), vehicle: saline with Tween-80 91 % of control | [20] 91 % of control

C=CCN(CC=C)c1nc(-c2ccccc2)nc(-c2ccccc2)n1
inactive: dose: 25.6 mg/kg/injection, schedule: Q04DX002 (ip), vehicle: saline with Tween-80 93 % of control | dose: 64.0 mg/kg/injection, schedule: Q04DX002 (ip), vehicle: saline with Tween-80 93 % of control | [9] 92 % of control | dose: 160.0 mg/kg/injection, schedule: Q04DX002 (ip), vehicle: saline with Tween-80 93 % of control | [11] 92 % of control | [20] 89 % of control | [12] 92 % of control

CC(=O)Nc1cccc(OC(=O)Nc2cccc(Cl)c2Cl)c1
inactive: [4] 97 % of control | [5] 102 % of control | [6] 103 % of control

CN(c1ccccc1)S(=O)(=O)c1ccccc1
inactive: [8] 100 % of control | [9] 97 % of control | [10] 106 % of control | [11] 97 % of control | [18] 90 % of control | [12] 92 % of control

Reference: PubChem BioAssay AID248 (DTP/NCI, 2004)
